According to US7109193B2, “Tricyclic diazepines tocolytic oxytocin receptor antagonists” (Wyeth, priority 2001, dated 2006):
Where a name gives a salt, the structure may show the parent alone.

Molecular target: T1, human vasopressin V2 receptor subtype (Homo sapiens, UniProt P30518)
T1 construct: host or cells: CHO cells (pZeoSV vector)
Test: Vasopressin binding in Chinese Hamster Ovary cell membranes expressing human vasopressin V2 subtype receptors
Conditions: CHO cell membranes, [3H]arginine vasopressin; for IC50: values in parentheses; for inhibition at 0.1 µM: 100 nM, values without parentheses
Procedure, shortened: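 Radioligand displacement on membranes from CHO cells stably expressing human V2 receptor, 25 to 50 μg protein/well, in 50 mM Tris-HCl pH 7.4 with MgCl2, BSA and protease inhibitors. [^3H]arginine vasopressin (8 nM working solution) incubated 60 min at room temperature; bound label measured by filtration and scintillation counting.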

T1 sequence (P30518 whole entry): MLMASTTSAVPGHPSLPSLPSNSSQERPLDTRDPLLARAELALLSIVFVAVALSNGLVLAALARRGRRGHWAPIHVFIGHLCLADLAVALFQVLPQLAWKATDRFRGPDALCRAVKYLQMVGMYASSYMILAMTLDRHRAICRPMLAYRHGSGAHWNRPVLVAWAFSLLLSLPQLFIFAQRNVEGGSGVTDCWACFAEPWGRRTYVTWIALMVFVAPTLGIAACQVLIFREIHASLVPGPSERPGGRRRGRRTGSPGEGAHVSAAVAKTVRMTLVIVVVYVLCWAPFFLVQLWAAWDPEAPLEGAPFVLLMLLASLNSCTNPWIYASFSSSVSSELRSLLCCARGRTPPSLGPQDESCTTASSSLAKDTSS

SMILES	IC50	inhibition at 0.1 µM
Cc1cc(C(=O)N2Cc3ccc(C(=O)N4CC[C@@H](N(C)C)C4)n3Cc3ccccc32)ccc1-c1ccccc1C(F)(F)F [Example 271, [(3R)-3-(Dimethylamino)pyrrolidinyl](10-{[2-methyl-2′-(trifluoromethyl)[1,1′-biphenyl]-4-yl]carbonyl}-10,11-dihydro-5H-pyrrolo[2,1-c][1,4]benzodiazepin-3-yl)methanone]	1.92 µM	–
Cc1cc(C(=O)N2Cc3ccc(C(=O)N4CCNCC4)n3Cc3ccccc32)ccc1-c1ccccc1C(F)(F)F [Example 7, 10,11-Dihydro-10-[[2-methyl-2′-trifluoromethyl-[1,1′-biphenyl]-4-yl]carbonyl]-3-(1-piperazinylcarbonyl)-5H-pyrrolo[2,1-c][1,4]benzodiazepine hydrochloride salt]	2.46 µM	–
Cc1ccc(-c2ccc(C(=O)N3Cc4cccn4Cc4ccccc43)cc2)c2ccccc12 [Example 25, [4-(4-Methyl-naphthalen-1-yl)phenyl][10,11-dihydro-5H-pyrrolo[2,1-c][1,4]benzodiazepin-10-yl]methanone]	0.0113 µM	–
COc1cccc(-c2ccc(C(=O)N3Cc4ccc(C(=O)N5CC[C@@H](N(C)C)C5)n4Cc4ccccc43)cc2C)c1 [Example 278, [(3R)-3-(Dimethylamino)pyrrolidinyl]{10-[(3′-methoxy-2-methyl[1,1′-biphenyl]-4-yl)carbonyl]-10,11-dihydro-5H-pyrrolo[2,1-c][1,4]benzodiazepin-3-yl}methanone]	1.68 µM	–
Cc1cc(C(=O)N2Cc3ccc(C(=O)N4CCN(CCN(C)C)CC4)n3Cc3ccccc32)ccc1-c1ccccc1C(F)(F)F [Example 196, {4-[2-(Dimethylamino)ethyl]-1-piperazinyl}(10-{[2-methyl-2′-(trifluoromethyl)[1,1′-biphenyl]-4-yl]carbonyl}-10,11-dihydro-5H-pyrrolo[2,1-c][1,4]benzodiazepin-3-yl)methanone]	0.855 µM	–

Results, then the compound that gave them:

IC50	inhibition at 0.1 µM	SMILES
1.3 µM	–	COc1ccccc1-c1ccc(C(=O)N2Cc3ccc(C(=O)N4CC[C@@H](N(C)C)C4)n3Cc3ccccc32)cc1C [Example 272, [(3R)-3-(Dimethylamino)pyrrolidinyl]{10-[(2′-methoxy-2-methyl[1,1′-biphenyl]-4-yl)carbonyl]-10,11-dihydro-5H-pyrrolo[2,1-c][1,4]benzodiazepin-3-yl}methanone]
–	26%	COc1ccccc1-c1ccc(C(=O)N2Cc3ccc(C(=O)N(C)CCCN(C)C)n3Cc3ccccc32)cc1C [Example 100, N-[3-(Dimethylamino)propyl]-10-[(2′-methoxy-2-methyl[1,1′-biphenyl]-4-yl)carbonyl]-N-methyl-10,11-dihydro-5H-pyrrolo[2,1-c][1,4]benzodiazepine-3-carboxamide]
0.833 µM	–	C=CCN1CCN(C(=O)c2ccc3n2Cc2ccccc2N(C(=O)c2ccc(-c4ccccc4OC)cc2)C3)CC1 [Example 221, (4-Allyl-1-piperazinyl){10-[(2′-methoxy[1,1′-biphenyl]4-yl)carbonyl]-10,11-dihydro-5H -pyrrolo[2,1-c][1,4]benzodiazepin-3-yl}methanone]
1.76 µM	–	Cc1cc(C(=O)N2Cc3ccc(C(=O)N4CCN(C)CC4)n3Cc3ccccc32)ccc1-c1ccccc1C(F)(F)F [Example 2, (4-Methyl-piperazin-1-yl)-[10-(2-methyl-2′-trifluoromethyl-[1,1′-biphenyl]-4-yl)-carbonyl]-10,11-dihydro-5H-pyrrolo[2,1-c][1,4]benzodiazepin-3-yl-methanone]
–	26%	COc1ccccc1-c1ccc(C(=O)N2Cc3ccc(C(=O)N(C)CCN(C)C)n3Cc3ccccc32)cc1OC [Example 94, 10-[(2,2′-Dimethoxy[1,1′-biphenyl]-4-yl)carbonyl]-N-[2-(dimethylamino)ethyl]-N-methyl-10,11-dihydro-5H-pyrrolo[2,1-c][1,4]benzodiazepine-3-carboxamide]
–	36%	COc1cc(C(=O)N2Cc3ccc(C(=O)N(C)CCN(C)C)n3Cc3ccccc32)ccc1-c1cccc2ccccc12 [Example 93, N-[2-(Dimethylamino)ethyl]-10-[3-methoxy-4-(1-naphthyl)benzoyl]-N-methyl-10,11-dihydro-5H-pyrrolo[2,1-c][1,4]benzodiazepine-3-carboxamide]
